We go through ten compounds from ChEMBL document CHEMBL6092167, “Phosphorylation as an Effective Tool to Improve Stability and Reduce Toxicity of Antimicrobial Peptides” (J Med Chem, 2024).

Values after ≈ are worked out from the molar mass of the structure shown. Non-standard residues stand in square brackets, D forms with d. Residues, ends and D or L forms follow the SMILES beside them. Bip = N[C@@H](Cc1ccc(-c2ccccc2)cc1)C(=O)O; pY = N[C@@H](Cc1ccc(OP(=O)(O)O)cc1)C(=O)O; pT = C[C@@H](OP(=O)(O)O)[C@H](N)C(=O)O; 2Nal = N[C@@H](Cc1ccc2ccccc2c1)C(=O)O

For series [1], the system named is Staphylococcus aureus. Description: Antibacterial activity against methicillin resistant Staphylococcus aureus ATCC 33591 incubated for 18 to 24 hrs by broth microdilution method. In kind it is functional. The note with it: time 18-24 hrs.
The test system of series [2] is Staphylococcus aureus. Description: Antibacterial activity against methicillin resistant Staphylococcus aureus 48 incubated for 18 to 24 hrs by broth microdilution method. The note with it: time 18-24 hrs. In kind it is functional.
The subject of series [3] is Staphylococcus aureus. Description: Antibacterial activity against Staphylococcus aureus 794 incubated for 18 to 24 hrs by broth microdilution method. In kind it is functional. The note with it: time 18-24 hrs.
In series [4] the test system is Escherichia coli. The series is described as follows: Antibacterial activity against Escherichia coli 780 incubated for 18 to 24 hrs by broth microdilution method. In kind it is functional. The note with it: time 18-24 hrs.
In series [5] the test system is Escherichia coli. Description: Antibacterial activity against Escherichia coli 850 incubated for 18 to 24 hrs by broth microdilution method. In kind it is functional. The note with it: time 18-24 hrs.
Series [6] concerns Pseudomonas aeruginosa. The series is described as follows: Antibacterial activity against Pseudomonas aeruginosa 119 incubated for 18 to 24 hrs by broth microdilution method. In kind it is functional. The note with it: time 18-24 hrs.
In series [7] the test system is Staphylococcus aureus. Description: Antibacterial activity against Staphylococcus aureus ATCC 25923 incubated for 18 to 24 hrs by broth microdilution method. In kind it is functional. The note with it: time 18-24 hrs.
Series [8] has as its system Bacillus subtilis. The series is described as follows: Antibacterial activity against Bacillus subtilis ATCC 23857 incubated for 18 to 24 hrs by broth microdilution method. In kind it is functional. The note with it: time 18-24 hrs.
Series [9] relates to Escherichia coli. Description: Antibacterial activity against Escherichia coli ATCC 25922 incubated for 18 to 24 hrs by broth microdilution method. In kind it is functional. The note with it: time 18-24 hrs.
For series [10], the system named is Pseudomonas aeruginosa. Description: Antibacterial activity against Pseudomonas aeruginosa ATCC 27853 incubated for 18 to 24 hrs by broth microdilution method. The note with it: time 18-24 hrs. In kind it is functional.
Series [11] has as its system Klebsiella pneumoniae. The series is described as follows: Antibacterial activity against Klebsiella pneumoniae ATCC 700603 incubated for 18 to 24 hrs by broth microdilution method. In kind it is functional. The note with it: time 18-24 hrs.
Series [12] relates to Acinetobacter baumannii. The series is described as follows: Antibacterial activity against Acinetobacter baumannii ATCC 19606 incubated for 18 to 24 hrs by broth microdilution method. In kind it is functional. The note with it: time 18-24 hrs.
Series [13] can be described thus: Hemolytic activity in mouse erythrocyte incubated for 1 hr by microplate reader assay. In kind it is toxicity, cell-based.
Series [14] in a line: Cytotoxicity against HEK293T cells incubated for 1 hr by fluorescence based microplate reader assay. In kind it is toxicity, cell-based, HEK-293T. The note with it: human.
The subject of series [15] is Klebsiella pneumoniae. The series is described as follows: Drug resistance development in Klebsiella pneumoniae ATCC 700603 assessed as fold increase in MIC measured after 7 passage. In kind it is functional.

As for `CC(C)C[C@H](NC(=O)[C@H](CC(C)C)NC(=O)[C@H](Cc1ccc(O)cc1)NC(=O)[C@H](CCCCN)NC(=O)[C@H](CC(C)C)NC(=O)[C@H](CCCNC(=N)N)NC(=O)[C@H](CCCCN)NC(=O)[C@H](Cc1ccc2ccccc2c1)NC(=O)[C@H](CC(C)C)NC(=O)CN)C(N)=O` (H-GL[2Nal]KRLKYLL-NH2), the minimal inhibitory concentration (MIC) in [1], in series [2], in [3], in series [4], in series [5] and in series [6] was 8 µM (≈ 10.4 µg/mL) throughout. Moreover, the minimal inhibitory concentration (MIC) turned out to be 8 µM (≈ 10.4 µg/mL) in series [7]; 4 µM (≈ 5.2 µg/mL) in series [8]; 8 µM (≈ 10.4 µg/mL) in series [9]; 8 µM (≈ 10.4 µg/mL) in series [10]; 8 µM (≈ 10.4 µg/mL) in series [11]; 8 µM (≈ 10.4 µg/mL) in series [12]. Besides, the MHC in series [13] stood at 78.09 µM. In series [14], this compound had a CC50 at 1 h of 61.5 µM.
As for `CC(C)C[C@H](NC(=O)[C@H](CC(C)C)NC(=O)[C@@H](NC(=O)[C@H](CCCCN)NC(=O)[C@H](CC(C)C)NC(=O)[C@H](CCCNC(=N)N)NC(=O)[C@H](CCCCN)NC(=O)[C@H](Cc1ccc2ccccc2c1)NC(=O)[C@H](CC(C)C)NC(=O)CN)[C@@H](C)OP(=O)(O)O)C(N)=O` (H-GL[2Nal]KRLK[pT]LL-NH2), the minimum inhibitory concentration (MIC) was 128 µM (≈ 169 µg/mL) in series [1]; 128 µM (≈ 169 µg/mL) in series [2]; 64 µM (≈ 84.3 µg/mL) in series [3]; 32 µM (≈ 42.2 µg/mL) in series [4]; 64 µM (≈ 84.3 µg/mL) in series [5]; 64 µM (≈ 84.3 µg/mL) in series [6]. For the same compound, the MIC amounted to 128 µM (≈ 169 µg/mL) in series [7]; 32 µM (≈ 42.2 µg/mL) in [8]; 64 µM (≈ 84.3 µg/mL) in series [9]; 32 µM (≈ 42.2 µg/mL) in [10]; 128 µM (≈ 169 µg/mL) in series [11]; 64 µM (≈ 84.3 µg/mL) in [12]. In series [13], this compound displayed an MHC above 256 µM. The CC50 at 1 h in [14] came to 131 µM.
Regarding `CC(C)C[C@H](NC(=O)[C@H](CC(C)C)NC(=O)[C@H](Cc1ccc(OP(=O)(O)O)cc1)NC(=O)[C@H](CCCCN)NC(=O)[C@H](CC(C)C)NC(=O)[C@H](CCCNC(=N)N)NC(=O)[C@H](CCCCN)NC(=O)[C@H](Cc1ccc2ccccc2c1)NC(=O)[C@H](CC(C)C)NC(=O)CN)C(N)=O` (H-GL[2Nal]KRLK[pY]LL-NH2), the MIC is 8 µM (≈ 11 µg/mL) in series [1]; 8 µM (≈ 11 µg/mL) in [2]; 8 µM (≈ 11 µg/mL) in series [3]; 16 µM (≈ 22.1 µg/mL) in series [4]; 8 µM (≈ 11 µg/mL) in series [5]; 32 µM (≈ 44.1 µg/mL) in series [6]. In addition, the minimum inhibitory concentration (MIC) in series [7] is 8 µM (≈ 11 µg/mL); in [8], 8 µM (≈ 11 µg/mL); in series [9], 8 µM (≈ 11 µg/mL); in [10], 16 µM (≈ 22.1 µg/mL); in series [11], 8 µM (≈ 11 µg/mL); in [12], 8 µM (≈ 11 µg/mL). This compound showed an MHC in [13] of 164.57 µM. For the same compound, the CC50 at 1 h in [14] stood at 128 µM.
With `CC(C)C[C@H](NC(=O)[C@H](CC(C)C)NC(=O)[C@@H](NC(=O)[C@H](CCCCN)NC(=O)[C@H](CC(C)C)NC(=O)[C@H](CCCNC(=N)N)NC(=O)[C@H](CCCCN)NC(=O)[C@H](Cc1ccc(-c2ccccc2)cc1)NC(=O)[C@H](CC(C)C)NC(=O)CN)[C@@H](C)O)C(N)=O` (H-GL[Bip]KRLKTLL-NH2), the MIC in series [1], in series [2], in [3], in [4], in series [5] and in series [6] was 8 µM (≈ 10.1 µg/mL) each time. Also, the MIC in series [7], in [8], in series [9], in series [10], in [11] and in [12] was 8 µM (≈ 10.1 µg/mL) in each case. Moreover, the MHC in series [13] worked out at 47.48 µM. The compound further came in with a CC50 at 1 h in series [14] of 76.4 µM.
Turning to `CC(C)C[C@H](NC(=O)[C@H](CC(C)C)NC(=O)[C@@H](NC(=O)[C@H](CCCCN)NC(=O)[C@H](CC(C)C)NC(=O)[C@H](CCCNC(=N)N)NC(=O)[C@H](CCCCN)NC(=O)[C@H](Cc1ccc(-c2ccccc2)cc1)NC(=O)[C@H](CC(C)C)NC(=O)CN)[C@@H](C)OP(=O)(O)O)C(N)=O` (H-GL[Bip]KRLK[pT]LL-NH2), the minimal inhibitory concentration (MIC) worked out at 54 µM (≈ 72.6 µg/mL) in [1]; 32 µM (≈ 43 µg/mL) in series [2]; 16 µM (≈ 21.5 µg/mL) in [3]; 16 µM (≈ 21.5 µg/mL) in [4]; 32 µM (≈ 43 µg/mL) in series [5]; 32 µM (≈ 43 µg/mL) in series [6]. The minimum inhibitory concentration (MIC) turned out to be 64 µM (≈ 86 µg/mL) in [7]; 16 µM (≈ 21.5 µg/mL) in [8]; 32 µM (≈ 43 µg/mL) in [9]; 16 µM (≈ 21.5 µg/mL) in series [10]; 64 µM (≈ 86 µg/mL) in [11]; 32 µM (≈ 43 µg/mL) in series [12]. This compound gave an MHC in [13] of 125.83 µM. This compound yielded a 50% cytotoxic concentration (CC50) at 1 h in series [14] of 112 µM.
In the case of `CO[C@H]1/C=C/O[C@@]2(C)Oc3c(C)c(O)c4c(O)c(c(/C=N/N5CCN(C)CC5)c(O)c4c3C2=O)NC(=O)/C(C)=C\C=C\[C@H](C)[C@H](O)[C@@H](C)[C@@H](O)[C@@H](C)[C@H](OC(C)=O)[C@@H]1C` [RIFAMPIN], the minimum inhibitory concentration (MIC) in series [7] was below 1 µM; in series [8], below 1 µM; in series [9] it was 8 µM (≈ 6.58 µg/mL); in series [10] it was 32 µM (≈ 26.3 µg/mL); in series [11], 32 µM (≈ 26.3 µg/mL); in series [12], 1 µM (≈ 0.823 µg/mL). In addition, the “fold change (FC)” value in series [15] is given as 128.
For the compound H-GLLKRWKTLL-NH2, the MIC in [1] was 128 µM; in series [2], 128 µM; in series [3], 32 µM; in series [4] it was 32 µM; in series [5] it was 32 µM; in series [6], 32 µM. Besides, the minimum inhibitory concentration (MIC) was above 128 µM in [7]; 8 µM in series [8]; 64 µM in [9]; 8 µM in series [10]; 64 µM in series [11]; above 128 µM in series [12]. Besides, the MHC in series [13] was above 256 µM. Moreover, the cytotoxic concentration (CC50) at 1 h in series [14] is above 128 µM.
Regarding H-GLLKRWKYLL-NH2, the minimal inhibitory concentration (MIC) in [1] is 32 µM; in series [2] it was 32 µM; in [3] it was 16 µM; in series [4], 8 µM; in [5], 16 µM; in series [6] it was 16 µM. The minimum inhibitory concentration (MIC) in series [7] was 64 µM; in series [8], 4 µM; in [9] it was 16 µM; in series [10] it was 8 µM; in [11], 64 µM; in series [12], 64 µM. Further, the MHC in [13] was above 256 µM. This compound also yielded a 50% cytotoxic concentration (CC50) at 1 h in [14] above 128 µM.
Regarding H-GLWKRLKTLL-NH2, the minimal inhibitory concentration (MIC) was 8 µM in [1]; 8 µM in series [2]; 8 µM in series [3]; 8 µM in [4]; 8 µM in series [5]; 16 µM in series [6]. In addition, the MIC in [7] was 16 µM; in series [8] it was 4 µM; in series [9], 8 µM; in series [10], 4 µM; in series [11], 8 µM; in series [12] it was 32 µM. This compound also had an MHC in [13] above 256 µM. In addition, in series [14], the CC50 at 1 h was above 128 µM.
As for H-GLWKRLKYLL-NH2, the MIC is 8 µM in series [1]; 8 µM in series [2]; 8 µM in [3]; 8 µM in series [4]; 8 µM in series [5]; 16 µM in [6]. The minimum inhibitory concentration (MIC) in series [7] was determined as 8 µM; in series [8] it was 4 µM; in [9] it was 8 µM; in [10] it was 8 µM; in series [11], 8 µM; in series [12] it was 8 µM. In addition, the MHC in [13] amounted to 182.72 µM. In series [14], this compound gave a cytotoxic concentration (CC50) at 1 h of 115 µM.
